# Test: Stability of phosphoric acid salt of dronedarone prepared without polymer
# Assay type: physicochemical
# Conditions: 45° C. and 75% relative humidity (RH)
smiles,measurement,value
CCCCc1oc2ccc(NS(C)(=O)=O)cc2c1C(=O)c1ccc(OCCCN(CCCC)CCCC)cc1.O=P(O)(O)O [phosphoric acid salt of dronedarone],Stability,unstable

# Reference: patent US20160213569A1, “PHARMACEUTICAL COMPOSITIONS OF RANOLAZINE AND DRONEDARONE” (Gilead Sciences, Inc., priority 2013, published 2016)
